# Values quoted from earlier work in publication PMC4338372 (FEBS Open Bio, 2015).
# Test system: Src family kinase
# Conditions: macrophages; inhibition of Src family kinase
compound,measurement,value
CC(C)(C)n1nc(-c2ccc(Cl)cc2)c2c(N)ncnc21 [PP2],phagocytosis efficiency,decreases phagocytosis efficiency in macrophages
